From patent US6908761B1, “Transcriptional activators” (Otsuka Pharmaceutical Co., Ltd., priority 1999, dated 2005)

Assays:
Type in all cases: cell-based, Human
[1] = test system: ARE sequence of the glutathione S-transferase Ya gene (SEQ ID NO: 5); experiment: Luciferase reporter assay, 3xARE/RBGP-Luc (ARE of SEQ ID NO: 5) in HepG2; conditions: HepG2, FIG. 4
Description: (§1) Then, 3 copies (Mol. Cell. Biol., 14, 700-712 (1994)) of various oligonucleotides (32-mers) containing the MARE sequences of SEQ ID NO: 1 through 7, comparative or control MARE sequences (SEQ ID NO: 1-4, 6 and 7), and an ARE sequence (SEQ ID NO: 5) were respectively inserted into the XhoI site of pUC118 vector with a modified poly-linker sequence. Further, the portion containing the 3 repeats of MARE sequence was excised at KpnI/BamHI site and inserted into the KpnI/BamHI site of pRBGP3. As an example of the above 32mer sequence, the one containing MARE of SEQ ID NO: 2 is shown in SEQ ID NO: 20. Here, tcgag represents the XhoI site.
(§2) Thus obtained were 3xMARE/RBGP-Luc and 3xARE/RBGP-Luc plasmids containing 3 repeats of 32 oligonucleotide sequences containing the 13 oligonucleotides shown in SEQ ID NO: 1 through 7 (MARE sequences, ARE sequences, and the corresponding comparative and control sequences). SEQ ID NO: 21 is an example of the sequence contained in the resulting 3xMARE/RBGP-Luc using SEQ ID NO: 2 as MARE. The obtained recombinant expression vectors were used for subsequent transfections.
(§3) Transfections were carried out using SUPERFECT Transfection Reagent (Qiagen) according to the protocol accompanying the reagent. Human hepatocellular calcinoma cell line HepG2 was subcultured on a 35 mm plate and, after 24 hours, the transfection was carried out. Thus, a transfection solution containing 100 μl of a vector solution containing 0.25 μg of the above plasmid, 100 μl of SUPERFECT transfection reagent, and 600 μl of DMEM serum-free medium were added to a PBS-washed cell plate. After 2 hours of incubation at 37° C., the medium was changed to 10% FCS-supplemented DMEM. After 2 hours, stimulating reagents containing various heavy metal compounds inclusive of auranofin; Ridaura™, product of Sigma; 2,3,4,6-tetra-O-acetyl-1-thio-β-D-glucopyranosato-S) (triethylphosphine)gold were added and the culture was continued. The luciferase activity in the cells was assayed 15-18 hours later.
(§4) The assay of luciferase activity was carried out using Dual-Luciferase Reporter Assay System (product of Promega) according to the manufacture's protocol.
(§5) To the culture plate was added 100 μl of the cytolytic buffer included in the […] kit to lyse the cells, and using a bench-top centrifuge, the lysate was centrifuged at 15,000 rpm for 5 seconds. The supernatant, 20 μl, of the lysate was mixed with 100 μl of the attached reagent LARII and the first chemiluminescence was measured with a luminometer. Then, 100 μl of the stopper (Stop & Glo Reagent) was added and the second chemniluminescence was measured.
(§6) The ratio of the first and second chemiluminescences was determined to calculate luciferase activity.
The results are shown in FIG. 4 similar to FIG. 1 (the abbreviations of reagents added are the same as above; each luciferase activity ratio was calculated with the control value found by culture of the vector in the absence of the test reagent being taken as 1).

[2] = test system: MARE sequence of SEQ ID NO: 2; experiment: Luciferase reporter assay, 3xMARE/RBGP-Luc (MARE of SEQ ID NO: 2) transfected into HepG2
Description: (a) Construction of a Recombinant Vector
As the basal skeleton of the recombinant vector, pGL2-Basic (product of Promega) was used. This vector is a luciferse expression vector.
The SV40 promoter of the above pGL2-Basic was substituted with oligonucleotides (SEQ ID NO: 8 and NO: 9, 41-mer each) containing the TATA sequence of rabbit β-globin promoter at Bgl II/Hind III site to construct pRBGP3 (Nature, 367, 568-572 (1994)).
as §1, §2, §3, §4, §5, §6
The recombinant expression vector (reporter plasmid) ligated with the MARE sequence of SEQ ID NO: 2 as constructed under (a) above, namely 3xMARE/RBGP-Luc, was used. Stimulating reagents containing various heavy metal compounds, namely 100 μM each of manganese chloride (MnCl2), cobalt chloride (CoCl2), nickel chloride (NiCl2), copper sulfate (CuSO4), zinc sulfate (ZnSO4), cadmium sulfate (CdSO4), mercury chloride (HgCl2) and sodium tetrachloroaurate(III) (Na(AuCl4)) and 5 μM of auranofin, were respectively added and the cells were cultured by the above procedure (b) for 18 hours. Then, luciferase activity was measured by the procedure described under (c) above. […]

[3] = test system: 5xSRE (c-fos) serum response element; experiment: Luciferase reporter assay, positive control 5xSRE (c-fos) in HepG2; conditions: 5 μM auranofin vs absence, 18 hours, HepG2, FIG. 3
Experimental: (§7) Transfections were carried out using SUPERFECT Transfection Reagent (Qiagen) according to the protocol accompanying the reagent. Human hepatocellular calcinoma cell line HepG2 was subcultured on a 35 mm plate and, after 24 hours, the transfection was carried out. Thus, a transfection solution containing 100 μl of a vector solution containing 0.25 μg of the above plasmid, 100 μl of SUPERFECT transfection reagent, and 600 μl of DMEM serum-free medium were added to a PBS-washed cell plate. After 2 hours of incubation at 37° C., the medium was changed to 10% FCS-supplemented DMEM. […]
as §5
(§8) The ratio of the first and second chemiluminescences was determined to calculate luciferase activity. […]
(§9) Each of the above vectors was cultured by the above procedure (b) for 18 hours in the presence of 5 μM auranofin or in the absence thereof and the luciferase activity was measured by the above procedure (c). […]

[4] = test system: MARE sequence of SEQ ID NO: 4; experiment: Luciferase reporter assay, 3xMARE/RBGP-Luc (MARE of SEQ ID NO: 4) in HepG2; conditions: 5 μM auranofin vs absence, 18 hours, HepG2, FIG. 3
Description: as §1, with “site. […]” for “site.”
as §5, §8

[5] = test system: AP-1 (activator protein-1) element of SEQ ID NO: 7; experiment: Luciferase reporter assay, AP-1 element of SEQ ID NO: 7 in HepG2; conditions: 5 μM auranofin vs absence, 18 hours, HepG2, FIG. 3
Description: as §1, with “site. […]” for “site.”
as §5, §8

5xkB (IL2R-a) kB element = experiment: Luciferase reporter assay, positive control 5xkB (IL2R-a) in HepG2; conditions: 5 μM auranofin vs absence, 18 hours, HepG2, FIG. 3
Experimental: as §7, §5, §8, §9

[6] = test system: MARE sequence of SEQ ID NO: 3; experiment: Luciferase reporter assay, 3xMARE/RBGP-Luc (MARE of SEQ ID NO: 3) in HepG2; conditions: 5 μM auranofin vs absence, 18 hours, HepG2, FIG. 3
Description: as §1, with “site. […]” for “site.”
as §5, §8

[7] = test system: control MARE of SEQ ID No: 6; experiment: Luciferase reporter assay, control MARE of SEQ ID NO: 6 in HepG2; conditions: 5 μM auranofin vs absence, 18 hours, HepG2, FIG. 3
Description: as §1, with “site. […]” for “site.”
as §5, §8

[8] = test system: MARE sequence of SEQ ID NO: 1; experiment: Luciferase reporter assay, 3xMARE/RBGP-Luc (MARE of SEQ ID NO: 1) in HepG2; conditions: 5 μM auranofin vs absence, 18 hours, HepG2, FIG. 3
Description: as §1, with “site. […]” for “site.”
as §5, §8

[9] = 100 μM heavy metal compound, 18 hours, HepG2, control taken as 1, FIG. 1

## O=C([O-])CC([S-])C(=O)[O-].[Au+].[Na+].[Na+] (centres unmarked) [AuTM, sodium aurothiomalate]
[1]; 100 μM
  activity ratio (luciferase activity ratio, control taken as 1): 8.1±0.4

## O=S(=O)([O-])[O-].[Cd+2] [cadmium sulfate]
[2]; [9]
  luciferase activity in multiples of untreated control (Fold Activation): 27.3

## OC[C@H]1O[C@H]([S-])[C@H](O)[C@@H](O)[C@@H]1O.[Au+] [AuTG, (1-thio-D-glucopyranosato)gold]
[1]; 500 μM
  activity ratio (luciferase activity ratio, control taken as 1): 21.7±15.4

## [Cl][Hg][Cl] [mercury chloride]
[2]; [9]
  luciferase activity in multiples of untreated control (Fold Activation): 10

## CC[PH](CC)(CC)[Au][S][C@@H]1O[C@H](COC(C)=O)[C@@H](OC(C)=O)[C@H](OC(C)=O)[C@H]1OC(C)=O [auranofin, (2,3,4,6-tetra-O-acetyl-1-thio-β-D-glucopyranosato-S)(triethylphosphine)gold]
[3]
  action on the reporter (luciferase activity ratio): does not act on
[2]; 5 μM auranofin vs absence, 18 hours, HepG2, FIG. 3, study (3)
  transcription activity ratio (luciferase activity ratio): 158.7
[2]; 5 μM auranofin, 18 hours, HepG2, control taken as 1, FIG. 1, study (1)
  luciferase activity in multiples of untreated control (Fold Activation): 142.4 times
[2]; AUR 0.5-20 μM, AuTG 20-500 μM, AuTM 10-500 μM, HepG2, FIG. 2
  dose dependence of MARE activation (luciferase activity ratio, Fold Activation): outstanding luciferase activation compared with the other two kinds of gold compounds
[4]
  transcription activity ratio (luciferase activity ratio): 112.9
[5]
  action on the reporter (luciferase activity ratio): does not act on
5xkB (IL2R-a) kB element
  action on the reporter (luciferase activity ratio): does not act on
[6]
  transcription activity ratio (luciferase activity ratio): 30.8
[7]
  action on the reporter (luciferase activity ratio): does not act on
[1]; 5 μM
  activity ratio (luciferase activity ratio, control taken as 1): 102.9±53.4
[1]; AUR 5 μM vs tBHQ 60 μM
  activity relative to that of tBHQ: about 30 times
[8]
  transcription activity ratio (luciferase activity ratio): 53.3

## [Cl][Au-]([Cl])([Cl])[Cl].[Na+] [sodium tetrachloroaurate(III)]
[2]; [9]
  luciferase activity in multiples of untreated control (Fold Activation): 4.3

## O=C(O)CC(S)C(=O)O (centres unmarked) [thiomalate]
[1]; 100 μM
  activity ratio (luciferase activity ratio, control taken as 1): 2.1±0.6

## [Cl][Co][Cl] [cobalt chloride]
[2]; [9]
  luciferase activity in multiples of untreated control (Fold Activation): 6.9

## CC(C)(C)c1cc(O)c(C(C)(C)C)cc1O [tBHQ, 2,5-di-tert-butylhydroquinone]
[1]; 60 μM
  activity ratio (luciferase activity ratio, control taken as 1): 6.0±3.8
